Experimental data taken from the NIST ThermoML archive (doi:10.1021/acs.jced.8b00132).
Several values for one entry are separate records, joined by “and”; a condition that tells them apart may be missing. Equal values may be shown once. Numbers after ± are expanded uncertainties.

Details: Liquid, transient hot wire

O=C(C(F)(F)C(F)(F)F)C(F)(C(F)(F)F)C(F)(F)F [dodecafluoro-2-methylpentan-3-one]
Details | thermal conductivity
242.34 K, 5849 kPa | 0.06998 ± 0.0014 W/m/K
242.34 K, 5853 kPa | 0.06965 ± 0.0014 W/m/K
242.35 K, 208 kPa | 0.06798 ± 0.0014 W/m/K
242.35 K, 212 kPa | 0.06825 ± 0.0014 W/m/K
242.58 K, 60304 kPa | 0.08223 ± 0.0017 W/m/K
242.58 K, 60314 kPa | 0.08199 ± 0.0017 W/m/K
242.59 K, 33710 kPa | 0.0767 ± 0.0016 W/m/K
242.59 K, 50797 kPa | 0.08019 ± 0.0016 W/m/K
242.59 K, 50816 kPa | 0.07983 ± 0.0016 W/m/K
242.59 K, 68418 kPa | 0.08363 ± 0.0017 W/m/K
242.59 K, 68434 kPa | 0.08369 ± 0.0017 W/m/K
242.6 K, 33703 kPa | 0.07658 ± 0.0016 W/m/K
242.6 K, 41984 kPa | 0.07877 ± 0.0016 W/m/K
242.6 K, 41989 kPa | 0.07848 ± 0.0016 W/m/K
242.67 K, 25698 kPa | 0.07459 ± 0.0015 W/m/K
242.68 K, 25706 kPa | 0.07494 ± 0.0015 W/m/K
242.77 K, 18756 kPa | 0.073 ± 0.0015 W/m/K
242.77 K, 18761 kPa | 0.07312 ± 0.0015 W/m/K
242.79 K, 12031 kPa | 0.07146 ± 0.0015 W/m/K
242.8 K, 12030 kPa | 0.07148 ± 0.0015 W/m/K
242.91 K, 5853 kPa | 0.06968 ± 0.0014 W/m/K
242.91 K, 5856 kPa | 0.06976 ± 0.0014 W/m/K
242.92 K, 207 kPa | 0.06801 ± 0.0014 W/m/K
242.93 K, 208 kPa | 0.06804 ± 0.0014 W/m/K
243.11 K, 60298 kPa | 0.08226 ± 0.0017 W/m/K
243.11 K, 68406 kPa | 0.084 ± 0.0017 W/m/K
243.11 K, 68416 kPa | 0.08398 ± 0.0017 W/m/K
243.12 K, 60300 kPa | 0.082 ± 0.0017 W/m/K
243.13 K, 50796 kPa | 0.08047 ± 0.0016 W/m/K
243.13 K, 50797 kPa | 0.08042 ± 0.0016 W/m/K
243.16 K, 41981 kPa | 0.07861 ± 0.0016 W/m/K
243.16 K, 41982 kPa | 0.07868 ± 0.0016 W/m/K
243.17 K, 33693 kPa | 0.07674 ± 0.0016 W/m/K
243.17 K, 33696 kPa | 0.07679 ± 0.0016 W/m/K
243.25 K, 25695 kPa | 0.07494 ± 0.0015 W/m/K
243.26 K, 25691 kPa | 0.07494 ± 0.0015 W/m/K
243.36 K, 18758 kPa | 0.07321 ± 0.0015 W/m/K
243.36 K, 18761 kPa | 0.07324 ± 0.0015 W/m/K
243.39 K, 12032 kPa | 0.07131 ± 0.0015 W/m/K
243.41 K, 12030 kPa | 0.07139 ± 0.0015 W/m/K
243.52 K, 5859 kPa | 0.0695 ± 0.0014 W/m/K and 0.06954 ± 0.0014 W/m/K
243.55 K, 209 kPa | 0.06795 ± 0.0014 W/m/K
243.56 K, 209 kPa | 0.06794 ± 0.0014 W/m/K
243.69 K, 68395 kPa | 0.08376 ± 0.0017 W/m/K
243.69 K, 68403 kPa | 0.08352 ± 0.0017 W/m/K
243.7 K, 60284 kPa | 0.08212 ± 0.0017 W/m/K
243.71 K, 60287 kPa | 0.08216 ± 0.0017 W/m/K
243.73 K, 50783 kPa | 0.08028 ± 0.0016 W/m/K
243.74 K, 50794 kPa | 0.08029 ± 0.0016 W/m/K
243.77 K, 41976 kPa | 0.07861 ± 0.0016 W/m/K
243.77 K, 41985 kPa | 0.07849 ± 0.0016 W/m/K
243.8 K, 33690 kPa | 0.07668 ± 0.0016 W/m/K
243.8 K, 33707 kPa | 0.07668 ± 0.0016 W/m/K
271.75 K, 5167 kPa | 0.06405 ± 0.0013 W/m/K
271.76 K, 5170 kPa | 0.06371 ± 0.0013 W/m/K
271.8 K, 431 kPa | 0.06194 ± 0.0013 W/m/K
271.81 K, 411 kPa | 0.06198 ± 0.0013 W/m/K
271.99 K, 24357 kPa | 0.07109 ± 0.0015 W/m/K
271.99 K, 24380 kPa | 0.07115 ± 0.0015 W/m/K
272.01 K, 32229 kPa | 0.0734 ± 0.0015 W/m/K
272.01 K, 32230 kPa | 0.07317 ± 0.0015 W/m/K
272.03 K, 40370 kPa | 0.07538 ± 0.0015 W/m/K
272.04 K, 40373 kPa | 0.07501 ± 0.0015 W/m/K
272.04 K, 46123 kPa | 0.07637 ± 0.0016 W/m/K
272.05 K, 11155 kPa | 0.06578 ± 0.0014 W/m/K
272.05 K, 11165 kPa | 0.06595 ± 0.0014 W/m/K
272.05 K, 46118 kPa | 0.07672 ± 0.0016 W/m/K
272.06 K, 17558 kPa | 0.06827 ± 0.0014 W/m/K
272.07 K, 17554 kPa | 0.06805 ± 0.0014 W/m/K
272.15 K, 5158 kPa | 0.06391 ± 0.0013 W/m/K
272.16 K, 5173 kPa | 0.06421 ± 0.0013 W/m/K
272.21 K, 418 kPa | 0.06216 ± 0.0013 W/m/K
272.21 K, 421 kPa | 0.06256 ± 0.0013 W/m/K
272.49 K, 24363 kPa | 0.06931 ± 0.0014 W/m/K
272.5 K, 32236 kPa | 0.07245 ± 0.0015 W/m/K
272.5 K, 32238 kPa | 0.07194 ± 0.0015 W/m/K
272.5 K, 40381 kPa | 0.07419 ± 0.0015 W/m/K
272.51 K, 40379 kPa | 0.07408 ± 0.0015 W/m/K
272.52 K, 46113 kPa | 0.0755 ± 0.0015 W/m/K
272.52 K, 46119 kPa | 0.07509 ± 0.0015 W/m/K
272.58 K, 5167 kPa | 0.06402 ± 0.0013 W/m/K
272.58 K, 11163 kPa | 0.0662 ± 0.0014 W/m/K
272.58 K, 17548 kPa | 0.06807 ± 0.0014 W/m/K
272.58 K, 17564 kPa | 0.06792 ± 0.0014 W/m/K
